One experiment relates to SW620 cells. Kind of experiment: Ras cellular assay, growth of cells with K-Ras G12V mutation (CellTiter-Glo). Conditions: Homo sapiens, SW-620; cell growth, Example 9, G12V mutation; read-out: IC50 against SW620 cells. It is filed as cell-based. In short, it runs like this:
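SW620 (K-Ras G12V) cells, e.g. 800/well in RPMI-1640 with 10% heat-inactivated FBS on standard or ultra-low attachment plates, were dosed the day after plating with e.g. a 10-point 3-fold series. Viability by CellTiter-Glo luminescence about 6 days later; IC50 from four-parameter fit.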
For orientation: In ATP-based viability assays light output follows the ATP content of the culture.

In another experiment the target is T1, K-Ras G12D (Homo sapiens, UniProt P01116, G12D).
T1 construct: made in house; host or cells: E. coli BL21 (DE3)
Briefly: HTRF resonance energy transfer assay, K-Ras G12D / SOS1 interaction. Conditions: HTRF assay of Example 5; read-out: IC50 against K-Ras G12D. The experiment is classed as biochemical. In short, it runs like this:
(§1)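 Read-out: HTRF 665/620 nm ratio (excitation 337 nm) after roughly 10 min or longer incubation, used to derive IC50. Donor anti-GST-Eu on GST-K-Ras; acceptor anti-6His-XL665 on His-hSOS1. Duplicate dose series from 10 μM down to 0.01 μM.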

Another experiment deals with A549 cells. Briefly: Ras cellular assay, growth of cells with K-Ras G12S mutation (CellTiter-Glo). The experiment is classed as cell-based. The following applies: Homo sapiens, cell growth, Example 9, G12S mutation, read-out: IC50 against A549 cells. In short, it runs like this: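 A549 cells (K-Ras G12S) in RPMI-1640 with 10% heat-inactivated FBS, seeded e.g. 800 per well in standard or ultra-low-attachment 384-well plates, treated next day with a dilution series (e.g. 10-point, 3-fold). Viability by CellTiter-Glo luminescence about 6 days later; IC50 from four-parameter fit.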

The target in another experiment is T2, K-Ras G12S (Homo sapiens, UniProt P01116, G12S).
T2 construct: made in house; host or cells: E. coli BL21 (DE3)
Kind of experiment: HTRF resonance energy transfer assay, K-Ras G12S / SOS1 interaction. Conditions: HTRF assay of Example 5; read-out: IC50 against K-Ras G12S. It is filed as biochemical. The method in brief: as §1
For orientation: In TR-FRET formats the signal depends on donor and acceptor labels being close together.

In a further experiment the test system is GP2D cells. Kind of experiment: Ras cellular assay, growth of cells with K-Ras G12D mutation (CellTiter-Glo). It is filed as cell-based. Conditions: cell growth, Example 9, G12D mutation, read-out: IC50 against GP2D cells.
The target in the next experiment is T3, K-Ras WT (Homo sapiens, UniProt P01116).
T3 construct: made in house; host or cells: E. coli BL21 (DE3)
Kind of experiment: HTRF resonance energy transfer assay, K-Ras WT / SOS1 interaction. It is filed as biochemical. The following applies: HTRF assay of Example 5; read-out: IC50 against K-Ras WT. In short, it runs like this: as §1

For the next experiment, the target named is T4, K-Ras G12V (Homo sapiens, UniProt P01116, G12V).
T4 construct: made in house; host or cells: E. coli BL21 (DE3)
Kind of experiment: HTRF resonance energy transfer assay, K-Ras G12V / SOS1 interaction. It is filed as biochemical. Conditions: HTRF assay of Example 5; read-out: IC50 against K-Ras G12V. In short, it runs like this:
as §1

Molecules are shown by their SMILES.

T4 sequence (P01116 1-188 isoform P01116-2 G12V): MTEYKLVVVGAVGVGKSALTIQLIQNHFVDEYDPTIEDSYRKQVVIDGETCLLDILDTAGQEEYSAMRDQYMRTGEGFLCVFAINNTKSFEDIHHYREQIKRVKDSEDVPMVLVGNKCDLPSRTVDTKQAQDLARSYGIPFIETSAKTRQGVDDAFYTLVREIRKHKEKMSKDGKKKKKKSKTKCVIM
T1 sequence (P01116 1-188 isoform P01116-2 G12D): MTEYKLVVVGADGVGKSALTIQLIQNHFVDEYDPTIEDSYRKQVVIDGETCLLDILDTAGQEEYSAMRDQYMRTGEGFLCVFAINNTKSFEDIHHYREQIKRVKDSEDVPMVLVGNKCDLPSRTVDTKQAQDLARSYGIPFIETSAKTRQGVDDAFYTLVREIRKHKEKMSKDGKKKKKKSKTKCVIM
T2 sequence (P01116 1-188 isoform P01116-2 G12S): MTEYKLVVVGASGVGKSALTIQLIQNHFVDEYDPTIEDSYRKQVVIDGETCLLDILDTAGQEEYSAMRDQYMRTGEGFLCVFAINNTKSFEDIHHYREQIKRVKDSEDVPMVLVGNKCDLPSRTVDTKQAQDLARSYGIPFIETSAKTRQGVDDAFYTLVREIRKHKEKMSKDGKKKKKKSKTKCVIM
T3 sequence (P01116 1-188 isoform P01116-2): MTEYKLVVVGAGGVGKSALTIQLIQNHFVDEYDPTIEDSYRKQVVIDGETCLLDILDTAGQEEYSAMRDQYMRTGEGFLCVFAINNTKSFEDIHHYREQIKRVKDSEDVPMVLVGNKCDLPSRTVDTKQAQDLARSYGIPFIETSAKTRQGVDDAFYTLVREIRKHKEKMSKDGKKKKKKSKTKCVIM

Take `C[C@@H]1CN(CC(F)F)c2nc(OC[C@@]34CCCN3C[C@H](F)C4)nc3c(F)c(-c4ccc(F)c5sc(N)c(C#N)c45)c(Cl)c(c23)O1` [Compound 1133, 2-amino-4-((6R)-8-chloro-4-(2,2-difluoroethyl)-10-fluoro-2-(((2R,7aS)-2-fluorotetrahydro-1H-pyrrolizin-7a(5H)-yl)methoxy)-6-methyl-5,6-dihydro-4H-[1,4]oxazepino[5,6,7-de]quinazolin-9-yl)-7-fluorobenzo[b]thiophene-3-carbonitrile]: the IC50 – broadly, the point on the concentration scale where inhibition reaches its midpoint – was less than 5000 nM in the experiment on SW620 cells; less than 100 nM on K-Ras G12D; less than 5000 nM in the experiment on A549 cells; less than 100 nM at K-Ras G12S; less than 500 nM in the experiment on GP2D cells; less than 100 nM on K-Ras WT. In addition, the IC50 at K-Ras G12V is less than 100 nM.

Consider `COCC(=O)N1CCC(N2CCOc3c(Cl)c(-c4ccc(F)c5sc(N)c(C#N)c45)c(F)c4nc(OC[C@@]56CCCN5C[C@H](F)C6)nc2c34)C1` (stereo partly drawn) [Compound 1134, 2-amino-4-(8-chloro-10-fluoro-2-(((2R,7aS)-2-fluorotetrahydro-1H-pyrrolizin-7a(5H)-yl)methoxy)-4-(1-(2-methoxyacetyl)pyrrolidin-3-yl)-5,6-dihydro-4H-[1,4]oxazepino[5,6,7-de]quinazolin-9-yl)-7-fluorobenzo[b]thiophene-3-carbonitrile], for which the IC50 in the experiment on SW620 cells is less than 5000 nM; at K-Ras G12D it was less than 100 nM; with A549 cells, less than 5000 nM; on K-Ras G12S it was less than 100 nM; in the experiment on GP2D cells, less than 500 nM; on K-Ras WT it was less than 100 nM. At K-Ras G12V, the IC50 is less than 100 nM.

For `C[C@@H]1CCOc2c(Cl)c(-c3ccc(F)c4sc(N)c(C#N)c34)c(F)c3nc(OC[C@@]45CCCN4C[C@H](F)C5)nc(c23)N1CC(F)F` [Compound 1203, 2-amino-4-((R)-9-chloro-4-(2,2-difluoroethyl)-11-fluoro-2-(((2R,7aS)-2-fluorotetrahydro-1H-pyrrolizin-7a(5H)-yl)methoxy)-5-methyl-4,5,6,7-tetrahydro-[1,5]oxazocino[4,3,2-de]quinazolin-10-yl)-7-fluorobenzo[b]thiophene-3-carbonitrile], the IC50 in the experiment with SW620 cells is less than 5000 nM; at K-Ras G12D it was less than 100 nM; with A549 cells, less than 5000 nM; on K-Ras G12S, less than 100 nM; in the experiment on GP2D cells it was less than 500 nM; at K-Ras WT, less than 100 nM. Also, the half-maximal inhibitory concentration (IC50) on K-Ras G12V is less than 100 nM.

For the compound `N#Cc1c(N)sc2c(F)ccc(-c3c(Cl)c4c5c(nc(OC[C@@]67CCCN6C[C@H](F)C7)nc5c3F)N(CCC(F)F)CCCO4)c12` [Compound 1212, 2-amino-4-(9-chloro-4-(3,3-difluoropropyl)-11-fluoro-2-(((2R,7aS)-2-fluorotetrahydro-1H-pyrrolizin-7a(5H)-yl)methoxy)-4,5,6,7-tetrahydro-[1,5]oxazocino[4,3,2-de]quinazolin-10-yl)-7-fluorobenzo[b]thiophene-3-carbonitrile], the IC50 with SW620 cells is less than 5000 nM; on K-Ras G12D it was less than 100 nM; in the experiment with A549 cells, less than 5000 nM; at K-Ras G12S, less than 100 nM; in the experiment on GP2D cells, less than 500 nM; at K-Ras WT, less than 100 nM. Besides, the IC50 at K-Ras G12V is less than 100 nM.

With `N#Cc1c(N)sc2c(F)ccc(-c3c(Cl)c4c5c(nc(OC[C@@]67CCCN6C[C@H](F)C7)nc5c3F)N(CC(F)F)CCCO4)c12` [Compound 1218, 2-amino-4-(9-chloro-4-(2,2-difluoroethyl)-11-fluoro-2-(((2R,7aS)-2-fluorotetrahydro-1H-pyrrolizin-7a(5H)-yl)methoxy)-4,5,6,7-tetrahydro-[1,5]oxazocino[4,3,2-de]quinazolin-10-yl)-7-fluorobenzo[b]thiophene-3-carbonitrile], the half-maximal inhibitory concentration (IC50) in the experiment on SW620 cells is less than 5000 nM; at K-Ras G12D, less than 100 nM; with A549 cells, less than 5000 nM; at K-Ras G12S, less than 100 nM; in the experiment on GP2D cells it was less than 500 nM; at K-Ras WT it was less than 100 nM. Further, the 50% inhibitory concentration (IC50) at K-Ras G12V was less than 100 nM.

As to `N#Cc1c(N)sc2c(F)ccc(-c3c(Cl)c4c5c(nc(OC[C@@]67CCCN6C[C@H](F)C7)nc5c3F)N(C3CCOC3)CC(O)CO4)c12` (stereo partly drawn) [Compound 1225, 2-amino-4-(9-chloro-11-fluoro-2-(((2R,7aS)-2-fluorotetrahydro-1H-pyrrolizin-7a(5H)-yl)methoxy)-6-hydroxy-4-(tetrahydrofuran-3-yl)-4,5,6,7-tetrahydro-[1,5]oxazocino[4,3,2-de]quinazolin-10-yl)-7-fluorobenzo[b]thiophene-3-carbonitrile], the IC50 in the experiment with SW620 cells is less than 5000 nM; on K-Ras G12D it was less than 100 nM; in the experiment on A549 cells, less than 5000 nM; at K-Ras G12S it was less than 100 nM; in the experiment on GP2D cells it was less than 500 nM; on K-Ras WT, less than 100 nM. In addition, at K-Ras G12V, the IC50 is less than 100 nM.
